Experimental data: patent publication US20260007758A1, “SO[…]-2 RECEPTOR (SST2R) NON-PEPTIDE DRUG CONJUGATES AND USES THEREOF” (Crinetics Pharmaceuticals, Inc., priority 2024, published 2026)

Assays:
Type in all cases: cell-based
[1] = molecular target: T1, human somatostatin receptor subtype 2 (Homo sapiens, UniProt P30874); assay: Functional assay for SSTR2 agonists (HTRF cAMP); conditions: CHO-K1 cells stably expressing human SST2; NKH477-stimulated cAMP; 20 min at 37 C; read-out: hSST2 cAMP Avg EC50
T1 construct: expressed in transfected cells
How it was run: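 CHO-K1 cells stably expressing human SSTR2 treated with compound (typically 0-10,000 nM final) for 20 min at 37 °C. Lysate cAMP measured by HTRF (665/620 nm ratio), converted via standard curve; EC50 from cAMP vs concentration.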

[2] = molecular target: T2, SST2 (Homo sapiens, UniProt P30874); assay: PathHunter CHO-K1 SST2 Internalization Assay; conditions: PathHunter CHO-K1 SST2 cells; 90 min at 37 C; luminescence; read-out: Internalization EC50
T2 construct: host or cells: PathHunter CHO-K1 SST2 cells
How it was run: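 CHO-K1 cells expressing human SST2, 2500 cells/well, grown 48 h, then exposed 90 min at 37 C to 11-point 1:3 NDC dilutions (final top 10 uM). Beta-Glo luminescence after 60 min at room temperature; four-parameter IC50, duplicate mean, background-corrected.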

[3] = tested on: NCI-H524 human small cell lung cancer cells; assay: H524 assay: inhibition of cell proliferation (CellTiter Glo); conditions: 2 h treatment, washout, additional 70 h incubation
How it was run: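 NCI-H524 cells were exposed for 2 h to NDC in an 11-point two-fold series starting at 1 uM. The drug was then washed out and cells grew a further 70 h. CellTiter Glo luminescence gave % inhibition versus untreated control, and IC50 came from a four-parameter nonlinear regression.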

T2 sequence (P30874 whole entry): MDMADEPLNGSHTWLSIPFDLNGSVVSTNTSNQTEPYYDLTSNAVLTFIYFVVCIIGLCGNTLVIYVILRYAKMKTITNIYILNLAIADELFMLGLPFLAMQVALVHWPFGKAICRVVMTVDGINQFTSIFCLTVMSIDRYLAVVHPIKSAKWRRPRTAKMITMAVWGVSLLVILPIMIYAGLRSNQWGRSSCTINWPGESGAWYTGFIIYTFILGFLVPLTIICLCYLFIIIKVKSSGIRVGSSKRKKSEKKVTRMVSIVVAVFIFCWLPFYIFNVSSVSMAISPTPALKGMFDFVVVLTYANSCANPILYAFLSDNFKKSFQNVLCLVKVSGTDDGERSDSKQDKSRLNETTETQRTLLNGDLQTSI
T1 sequence (P30874 whole entry): as above

SMILES: CC[C@H](C)[C@@H]([C@@H](CC(=O)N1CCC[C@H]1[C@H](OC)[C@@H](C)C(=O)N[C@H](C)[C@@H](O)c1ccccc1)OC)N(C)C(=O)[C@@H](NC(=O)[C@H](C(C)C)N(C)C(=O)OCc1ccc(NC(=O)[C@H](C)NC(=O)[C@@H](NC(=O)CCOCCOCCOCCOCCC(=O)NCCNc2ncc(-c3cc(C)cc(F)c3)c(N3CCC(N)CC3)c2-c2nc3ccc(Cl)cc3[nH]2)C(C)C)cc1C(=O)NCC(=O)O)C(C)C [Compound 69]
- EC50 [1]: 0.16 nM
- EC50 [2]: 5.6 nM
- EC50 [3]: 36 nM

SMILES: CC[C@H](C)[C@@H]([C@@H](CC(=O)N1CCC[C@H]1[C@H](OC)[C@@H](C)C(=O)N[C@H](C)[C@@H](O)c1ccccc1)OC)N(C)C(=O)[C@@H](NC(=O)[C@H](C(C)C)N(C)C(=O)OCc1ccc(NC(=O)[C@H](C)NC(=O)[C@@H](NC(=O)CCOCCC(=O)NCCNc2ncc(-c3cc(C)cc(F)c3)c(N3CCC(N)CC3)c2-c2nc3ccc(Cl)cc3[nH]2)C(C)C)c(O[C@@H]2O[C@H](C(=O)NCC(=O)O)[C@@H](O)[C@H](O)[C@H]2O)c1)C(C)C [Compound 33]
- EC50 [1]: 0.15 nM
- EC50 [2]: 2.5 nM
- EC50 [3]: 7 nM

SMILES: CC[C@H](C)[C@@H]([C@@H](CC(=O)N1CCC[C@H]1[C@H](OC)[C@@H](C)C(=O)N[C@H](C)[C@@H](O)c1ccccc1)OC)N(C)C(=O)[C@@H](NC(=O)[C@H](C(C)C)N(C)C(=O)OCc1ccc(NC(=O)[C@H](CCCNC(N)=O)NC(=O)[C@@H](NC(=O)c2ccc(NC(=O)CCOCCOCCOCCOCCC(=O)NCCNc3ncc(-c4cc(C)cc(F)c4)c(N4CCC(N)CC4)c3-c3nc4ccc(Cl)cc4[nH]3)cc2O[C@@H]2OC(C(=O)O)[C@@H](O)[C@H](O)[C@H]2O)C(C)C)cc1)C(C)C (stereo partly drawn) [Compound 183]
- EC50 [1]: 0.074 nM
- EC50 [2]: 3.1 nM
- EC50 [3]: 1000 nM

SMILES: CC[C@H](C)[C@@H]([C@@H](CC(=O)N1CCC[C@H]1[C@H](OC)[C@@H](C)C(=O)N[C@H](C)[C@@H](O)c1ccccc1)OC)N(C)C(=O)[C@@H](NC(=O)[C@H](C(C)C)N(C)C(=O)OCc1ccc(NC(=O)[C@H](CCCNC(N)=O)NC(=O)[C@@H](NC(=O)c2cc(NC(=O)CCOCCOCCOCCOCCC(=O)NCCNc3ncc(-c4cc(C)cc(F)c4)c(N4CCC(N)CC4)c3-c3nc4ccc(Cl)cc4[nH]3)cc(C(=O)NCC(=O)O)c2)C(C)C)cc1)C(C)C [Compound 150]
- EC50 [1]: 0.083 nM
- EC50 [2]: 8.3 nM
- EC50 [3]: 53 nM

SMILES: CC[C@H](C)[C@@H]([C@@H](CC(=O)N1CCC[C@H]1[C@H](OC)[C@@H](C)C(=O)N[C@H](C)[C@@H](O)c1ccccc1)OC)N(C)C(=O)[C@@H](NC(=O)C(C(C)C)N(C)C(=O)OCc1ccc(NC(=O)[C@H](CCCNC(N)=O)NC(=O)[C@@H](NC(=O)CCOCCC(=O)NCCNc2ncc(-c3cc(C)cc(F)c3)c(N3CCC(N)CC3)c2-c2nc3ccc(Cl)cc3[nH]2)C(C)C)c(O[C@@H]2O[C@H](C(=O)N3CCN(CC(=O)O)CC3)[C@@H](O)[C@H](O)[C@H]2O)c1)C(C)C (stereo partly drawn) [Compound 227]
- EC50 [1]: 0.078 nM
- EC50 [2]: 3.1 nM
- EC50 [3]: 11 nM

SMILES: CC[C@H](C)[C@@H]([C@@H](CC(=O)N1CCC[C@H]1[C@H](OC)[C@@H](C)C(=O)N[C@H](C)[C@@H](O)c1ccccc1)OC)N(C)C(=O)[C@@H](NC(=O)[C@H](C(C)C)N(C)C(=O)OCc1ccc(NC(=O)[C@H](CCCNC(N)=O)NC(=O)[C@@H](NC(=O)[C@H](CCCO)NC(=O)CCOCCC(=O)NCCNc2ncc(-c3cc(C)cc(F)c3)c(N3CCC(N)CC3)c2-c2nc3cc(Cl)ccc3[nH]2)C(C)C)c(O[C@@H]2O[C@H](C(=O)NCC(=O)O)[C@@H](O)[C@H](O)[C@H]2O)c1)C(C)C [Compound 219]
- EC50 [1]: 0.099 nM
- EC50 [2]: 2.7 nM
- EC50 [3]: 7.5 nM

SMILES: CC[C@H](C)[C@@H]([C@@H](CC(=O)N1CCC[C@H]1[C@H](OC)[C@@H](C)C(=O)N[C@H](C)[C@@H](O)c1ccccc1)OC)N(C)C(=O)[C@@H](NC(=O)[C@H](C(C)C)N(C)C(=O)OCc1ccc(NC(=O)[C@H](CCCNC(N)=O)NC(=O)[C@@H](NC(=O)c2cc(NC(=O)CCCC(=O)N(C)CC(=O)NCCNc3ncc(-c4cc(C)cc(F)c4)c(N4CCC(N)CC4)c3-c3nc4ccc(Cl)cc4[nH]3)cc(C(=O)NC[C@@H](N)C(=O)O)c2)C(C)C)cc1)C(C)C [Compound 171]
- EC50 [1]: 0.33 nM
- EC50 [2]: 8.3 nM
- EC50 [3]: 14 nM

SMILES: CC[C@H](C)[C@@H]([C@@H](CC(=O)N1CCCC1[C@H](OC)[C@@H](C)C(=O)N[C@H](C)[C@@H](O)c1ccccc1)OC)N(C)C(=O)[C@@H](NC(=O)[C@H](C(C)C)N(C)C(=O)OCc1ccc(NC(=O)[C@H](CCCNC(N)=O)NC(=O)[C@@H](NC(=O)[C@H](Cc2c[nH]cn2)NC(=O)CCOCCC(=O)NCCNc2ncc(-c3cc(C)cc(F)c3)c(N3CCC(N)CC3)c2-c2nc3ccc(Cl)cc3[nH]2)C(C)C)c(OCC(=O)O)c1)C(C)C (stereo partly drawn) [Compound 202]
- EC50 [1]: 0.14 nM
- EC50 [2]: 4.6 nM
- EC50 [3]: 14 nM

SMILES: CC[C@H](C)[C@@H]([C@@H](CC(=O)N1CCC[C@H]1[C@H](OC)[C@@H](C)C(=O)N[C@H](C)[C@@H](O)c1ccccc1)OC)N(C)C(=O)[C@@H](NC(=O)[C@H](C(C)C)N(C)C(=O)OCc1ccc(NC(=O)[C@H](CCCNC(N)=O)NC(=O)[C@@H](NC(=O)c2cc(NCCOCCC(=O)NCCNc3ncc(-c4cc(C)cc(F)c4)c(N4CCC(N)CC4)c3-c3nc4ccc(Cl)cc4[nH]3)cc(C(=O)NCCC(=O)O)c2)C(C)C)cc1)C(C)C [Compound 145]
- EC50 [1]: 0.38 nM
- EC50 [2]: 17 nM
- EC50 [3]: 78 nM

SMILES: CC[C@H](C)[C@@H]([C@@H](CC(=O)N1CCC[C@H]1[C@H](OC)[C@@H](C)C(=O)N[C@H](C)[C@@H](O)c1ccccc1)OC)N(C)C(=O)[C@@H](NC(=O)[C@H](C(C)C)N(C)C(=O)OCc1ccc(NC(=O)[C@H](C)NC(=O)[C@@H](NC(=O)CCOCCC(=O)NCCNc2ncc(-c3cc(C)cc(F)c3)c(N3CCC(N)CC3)c2-c2nc3cc(F)cc(OC)c3[nH]2)C(C)C)c(O[C@@H]2O[C@H](C(=O)O)[C@@H](O)[C@H](O)[C@H]2O)c1)C(C)C [Compound 140]
- EC50 [1]: 0.15 nM
- EC50 [2]: 2.9 nM
- EC50 [3]: 6.6 nM

SMILES: CC[C@H](C)[C@@H]([C@@H](CC(=O)N1CCC[C@H]1[C@H](OC)[C@@H](C)C(=O)N[C@H](C)[C@@H](O)c1ccccc1)OC)N(C)C(=O)[C@@H](NC(=O)[C@H](C(C)C)N(C)C(=O)OCc1ccc(NC(=O)[C@H](C)NC(=O)[C@@H](NC(=O)CCOCCC(=O)N(C)CC(=O)NCCNc2ncc(-c3cc(C)cc(F)c3)c(N3CCC(N)CC3)c2-c2nc3ccc(Cl)cc3[nH]2)C(C)C)c(O[C@@H]2O[C@H](C(=O)O)[C@@H](O)[C@H](O)[C@H]2O)c1)C(C)C [Compound 134]
- EC50 [1]: 0.11 nM
- EC50 [2]: 2.1 nM
- EC50 [3]: 1200 nM
